Numbers after ± are expanded uncertainties.
Settings: for viscosity / mass density: 101.33 kPa, Liquid; for viscosity: Cone and plate viscometry; for mass density: Vibrating tube method

CCCCCCCCCCCCCC[P+](CCCCCC)(CCCCCC)CCCCCC.O=[N+]([O-])c1cn[n-]c1 [trihexyl(tetradecyl)phosphonium 4-nitropyrazolide]
Settings | mass density [kg/m3] | viscosity [mPa·s]
278.15 K | – | 3560 ± 370
283.15 K | 948.8 ± 4.9 | 2290 ± 220
288.15 K | 945.6 ± 4.9 | 1500 ± 140
293.15 K | 942.3 ± 4.8 | 1020 ± 89
295.15 K | 941.1 ± 4.8 | –
298.15 K | 939.3 ± 4.8 | 710 ± 59
303.15 K | 936.4 ± 4.8 | 510 ± 40
308.15 K | 933.4 ± 4.8 | 375 ± 28
313.15 K | 930.4 ± 4.7 | 280 ± 21
318.15 K | 927.4 ± 4.7 | 214 ± 15
323.15 K | 924.5 ± 4.7 | 167 ± 12
328.15 K | 921.6 ± 4.7 | 133 ± 9
333.15 K | 918.7 ± 4.6 | 108 ± 7
338.15 K | 915.8 ± 4.6 | 88 ± 6
343.15 K | 912.8 ± 4.6 | 74 ± 5
348.15 K | 909.9 ± 4.6 | –
353.15 K | 907 ± 4.6 | –

Settings | Glass transition temperature [°C]
Glass, DSC | -75 ± 2

CC(=O)[O-].CCCCCCCCCCCCCC[P+](CCCCCC)(CCCCCC)CCCCCC [trihexyl(tetradecyl)phosphonium acetate]
Settings | mass density [kg/m3] | viscosity [mPa·s]
278.15 K | – | 1820 ± 170
283.15 K | 895 ± 4.5 | 1200 ± 110
288.15 K | 891.9 ± 4.4 | 814 ± 69
293.15 K | 888.9 ± 4.4 | 566 ± 45
295.15 K | 887.6 ± 4.4 | –
298.15 K | 885.8 ± 4.4 | 406 ± 31
303.15 K | 882.8 ± 4.4 | 298 ± 22
308.15 K | 879.8 ± 4.3 | 224 ± 16
313.15 K | 876.8 ± 4.3 | 172 ± 12
318.15 K | 873.7 ± 4.3 | 135 ± 9
323.15 K | 870.7 ± 4.3 | 107 ± 7
328.15 K | 867.7 ± 4.3 | –
333.15 K | 864.7 ± 4.2 | –
338.15 K | 861.7 ± 4.2 | –
343.15 K | 858.7 ± 4.2 | –
348.15 K | 855.7 ± 4.2 | –
353.15 K | 852.7 ± 4.2 | –

Source: the NIST ThermoML archive (doi:10.1021/acs.jced.6b00269)
